# Patent US20080247962A1, “Pharmaceutical Compositions Comprising Higher Primary Aliphatic Alcohols and Hmg Coa Reductase Inhibitor and Process of Preparation Thereof” (PANACEA BIOTEC LTD., priority 2004, published 2008)
# Tested on: Casein-Starch-Induced Hypercholesterolemia in Rabbits
# Assay: Casein-starch-induced hypercholesterolemia in rabbits (serum lipid profile)
# Format: in vivo
# Set-up: key to LDL-C level: serum LDL-C in mg/dL, mean±S.E.M
# Details: for serum total cholesterol level / LDL-C level: mean±S.E.M.; for LDL-C level: in mg/dL (unit assumed)
# Experimental: Casein-Starch-Induced Hypercholesterolemia in Rabbits
# The observed unexpected synergistic lipid lowering effect of combination of Extract-A and atorvastatin is evidenced by the test conducted in rabbits. Rabbits of either sex were procured from Central Animal House facility; Panacea Biotec Ltd., India. Animals weighing 1.5-2.0 Kg at the time of testing were used. All animals were dosed sequentially by the oral route with Extract-A and/or atorvastatin suspended in 0.5% of carboxymethyl cellulose (CMC). A dosing volume of 2 ml/kg was used for each sequential suspension.
# The fasting serum lipid profile (TC, TGs, LDL-C, HDL-C) was estimated before initiation of the experiment. […] Hypercholesterolemia was induced by feeding rabbits with wheat casein-starch diet (g/kg) containing wheat flour 333, cellulose 300, casein 270, water 20, maize oil 10, and mineral mixture (Kroon et al., 1982) for 60 days. Feed consumption was restricted to 100 g/day per animal. The cholesterol level was estimated every 15 days. After 60 days animals with total cholesterol level >150 mg/dl were randomized to treatment (n=6/group). Thereafter, various doses of Extract-A and/or atorvastatin were administered for another 60 days during which animals were fed with casein-starch diet. Blood samples were collected from fasted rabbits and analyzed for any alteration in serum lipid profile after 60 days of test compound(s) administration.
# All the data are expressed as mean±S.E.M. (Standard Error of Mean). Student t-test was-used to compare the lipid parameters between animals fed with standard and hypercholesterolemic diet. The difference between various drug treated groups was analyzed by ANOVA followed by Dunnett's test. A value of P<0.05 was considered as statistically significant.
# [1] = atorvastatin 2.5 mg/kg p.o., day 0, pre-dose
# [2] = atorvastatin 2.5 mg/kg p.o., day 15, pre-dose
# [3] = atorvastatin 2.5 mg/kg p.o., day 30, pre-dose
# [4] = atorvastatin 2.5 mg/kg p.o., day 60, start of dosing
# [5] = atorvastatin 2.5 mg/kg p.o., day 75 (dosing from day 60)
# [6] = atorvastatin 2.5 mg/kg p.o., day 90 (dosing from day 60)
# [7] = atorvastatin 2.5 mg/kg p.o., day 105 (dosing from day 60)
# [8] = atorvastatin 2.5 mg/kg p.o., day 120 (dosing from day 60)
# [9] = atorvastatin 5 mg/kg p.o., day 0, pre-dose
# [10] = atorvastatin 5 mg/kg p.o., day 15, pre-dose
# [11] = atorvastatin 5 mg/kg p.o., day 30, pre-dose
# [12] = atorvastatin 5 mg/kg p.o., day 60, start of dosing
# [13] = atorvastatin 5 mg/kg p.o., day 75 (dosing from day 60)
# [14] = atorvastatin 5 mg/kg p.o., day 90 (dosing from day 60)
# [15] = atorvastatin 5 mg/kg p.o., day 105 (dosing from day 60)
# [16] = atorvastatin 5 mg/kg p.o., day 120 (dosing from day 60)
# [17] = single agents: Extract-A 100 and 200 mg/kg p.o., atorvastatin 2.5 and 5 mg/kg p.o.
structure (smiles),measurement,setting,value
"CC(C)c1c(C(=O)Nc2ccccc2)c(-c2ccccc2)c(-c2ccc(F)cc2)n1CC[C@@H](O)C[C@@H](O)CC(=O)O [At, atorvastatin]",serum total cholesterol level,[1],56.83 ± 4.84 mg/dL
same,LDL-C level,[1],21.4 ± 8.04
same,serum total cholesterol level,[2],96.00 ± 2.08 mg/dL
same,LDL-C level,[2],61.03 ± 1.87
same,serum total cholesterol level,[3],144.83 ± 6.6 mg/dL
same,LDL-C level,[3],106.6 ± 5.85
same,serum total cholesterol level,[4],204.66 ± 6.58 mg/dL
same,LDL-C level,[4],166.07 ± 4.97
same,serum total cholesterol level,[5],202.5 ± 15.15 mg/dL
same,LDL-C level,[5],165.53 ± 14.81
same,serum total cholesterol level,[6],205.83 ± 13.31 mg/dL
same,LDL-C level,[6],166.47 ± 13.66
same,serum total cholesterol level,[7],201.33 ± 11.49 mg/dL
same,LDL-C level,[7],159.3 ± 12.53
same,serum total cholesterol level,[8],201.16 ± 10.4 mg/dL
same,LDL-C level,[8],158.00 ± 12.22
same,serum total cholesterol level,[9],68.50 ± 5.99 mg/dL
same,LDL-C level,[9],30.33 ± 6.44
same,serum total cholesterol level,[10],101.16 ± 1.88 mg/dL
same,LDL-C level,[10],61.83 ± 1.77
same,serum total cholesterol level,[11],142.16 ± 10.37 mg/dL
same,LDL-C level,[11],104.17 ± 11.76
same,serum total cholesterol level,[12],226.67 ± 9.74 mg/dL
same,LDL-C level,[12],188.67 ± 10.00
same,serum total cholesterol level,[13],213.16 ± 5.69 mg/dL
same,LDL-C level,[13],175.07 ± 5.06
same,serum total cholesterol level,[14],201.83 ± 5.81 mg/dL
same,LDL-C level,[14],161.3 ± 6.04
same,serum total cholesterol level,[15],198.17 ± 6.65 mg/dL
same,LDL-C level,[15],155.17 ± 6.87
same,serum total cholesterol level,[16],195.50 ± 5.31 mg/dL
same,LDL-C level,[16],149.1 ± 4.72
same,LDL-C in comparison to hypercholesterolemic control rabbits,[17],reversed
same,TC in comparison to hypercholesterolemic control rabbits,[17],reversed
